Data: US8410310B2, “Trypsin-like serine protease inhibitors, and their preparation and use” (The Medicines Company (Leipzig) GmbH, priority 2006, dated 2013)
Where two headings read alike, the source gives them in different places.

Experiments:
Assay type in all cases: biochemical
[1] = target: Xa (Homo sapiens, UniProt P00742); test: Determination of inhibition constants for Xa
Procedure: (§1) The inhibitory effect for the individual enzymes was determined in analogy to a previously disclosed method (Stürzebecher et al., 1997).
(§2) For zero order kinetics, the reaction was stopped after 20 min by adding 25 μl of acetic acid (50% v/v), and the absorption at 405 nm was determined using a Microplate Reader (Multiscan Ascent, from Thermo). In the case of pseudo-first order kinetics, the reaction rates in the equilibrium state were ascertained by recording the reaction kinetics. The Ki values were ascertained either in accordance with Dixon (1953) by linear regression using a computer program or by parameter fitting in accordance with the rate equation for competitive inhibition. The Ki values are the average of at least two determinations.

[2] = target: Thrombin (Homo sapiens, UniProt P00734); test: Determination of inhibition constants for thrombin
Procedure: as §1, §2

[3] = target: plasmin (Homo sapiens, UniProt P00747); test: Determination of inhibition constants for plasmin; parameters: purchased Calbiochem
plasmin, sequence (P00747 581-810 limits assumed): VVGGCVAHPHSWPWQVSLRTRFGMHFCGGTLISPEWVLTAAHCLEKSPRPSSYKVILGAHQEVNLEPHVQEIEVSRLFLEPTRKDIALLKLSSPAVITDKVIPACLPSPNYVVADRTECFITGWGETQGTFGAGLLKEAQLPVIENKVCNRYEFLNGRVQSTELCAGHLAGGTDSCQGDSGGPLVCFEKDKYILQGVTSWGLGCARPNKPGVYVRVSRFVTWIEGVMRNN
plasmin, sequence (P00747 97-580 partner limits assumed): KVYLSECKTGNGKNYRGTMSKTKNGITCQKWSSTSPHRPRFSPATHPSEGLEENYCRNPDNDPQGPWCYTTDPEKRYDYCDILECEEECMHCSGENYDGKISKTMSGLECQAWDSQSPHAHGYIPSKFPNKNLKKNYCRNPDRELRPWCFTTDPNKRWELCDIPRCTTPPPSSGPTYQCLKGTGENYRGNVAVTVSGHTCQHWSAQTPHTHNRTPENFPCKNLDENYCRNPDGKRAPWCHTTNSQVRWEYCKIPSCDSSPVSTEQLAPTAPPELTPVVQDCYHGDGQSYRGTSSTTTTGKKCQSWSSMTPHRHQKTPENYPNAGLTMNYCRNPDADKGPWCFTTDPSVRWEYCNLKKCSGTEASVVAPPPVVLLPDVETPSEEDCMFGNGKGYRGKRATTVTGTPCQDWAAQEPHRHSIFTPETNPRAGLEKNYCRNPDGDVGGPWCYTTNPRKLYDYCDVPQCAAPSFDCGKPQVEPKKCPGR
Procedure: as §1, §2

[4] = target: plasma kallikrein (Homo sapiens, UniProt P03952); test: Determination of inhibition constants for PK; parameters: purchased Enzyme Research Lab. / Enzyme Research Laboratories
plasma kallikrein, sequence (P03952 391-638 limits assumed): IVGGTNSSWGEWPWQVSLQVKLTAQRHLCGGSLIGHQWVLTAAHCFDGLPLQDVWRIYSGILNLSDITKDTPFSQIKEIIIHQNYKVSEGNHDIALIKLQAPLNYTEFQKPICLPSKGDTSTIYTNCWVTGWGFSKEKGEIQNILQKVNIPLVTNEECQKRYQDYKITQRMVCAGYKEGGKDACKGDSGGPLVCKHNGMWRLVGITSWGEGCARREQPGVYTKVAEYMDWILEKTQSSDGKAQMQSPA
plasma kallikrein, sequence (P03952 20-390 partner limits assumed): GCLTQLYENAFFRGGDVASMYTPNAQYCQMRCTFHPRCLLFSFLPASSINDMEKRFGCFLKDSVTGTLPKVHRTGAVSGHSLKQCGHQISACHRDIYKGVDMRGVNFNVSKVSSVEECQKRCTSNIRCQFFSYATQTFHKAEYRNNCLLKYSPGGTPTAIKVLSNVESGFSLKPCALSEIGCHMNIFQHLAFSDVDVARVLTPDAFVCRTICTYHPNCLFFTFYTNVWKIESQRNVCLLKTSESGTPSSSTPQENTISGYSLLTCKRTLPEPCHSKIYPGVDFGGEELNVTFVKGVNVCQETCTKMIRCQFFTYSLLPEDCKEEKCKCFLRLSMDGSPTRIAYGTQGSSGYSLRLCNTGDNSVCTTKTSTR
Procedure: as §1, §2

[5] = 25° C., substrate Chromozym PL, pH 8.0, read-out: Plasmin [Ki]
[6] = 25° C., substrate S2302, pH 8.0, read-out: PK [Ki]
[7] = summary of results, read-out: Ki value of the plasmin inhibition
[8] = summary of results, read-out: Ki value of the plasma kallikrein inhibition

Xa, sequence (P00742 235-488 limits assumed): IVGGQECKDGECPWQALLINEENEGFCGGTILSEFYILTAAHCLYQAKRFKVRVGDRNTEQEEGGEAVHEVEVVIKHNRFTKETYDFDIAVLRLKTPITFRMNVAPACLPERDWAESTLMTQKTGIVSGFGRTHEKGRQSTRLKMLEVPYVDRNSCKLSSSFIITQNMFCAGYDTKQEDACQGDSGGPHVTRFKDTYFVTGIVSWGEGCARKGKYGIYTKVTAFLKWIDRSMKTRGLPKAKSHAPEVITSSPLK
Xa, sequence (P00742 41-179 limits assumed): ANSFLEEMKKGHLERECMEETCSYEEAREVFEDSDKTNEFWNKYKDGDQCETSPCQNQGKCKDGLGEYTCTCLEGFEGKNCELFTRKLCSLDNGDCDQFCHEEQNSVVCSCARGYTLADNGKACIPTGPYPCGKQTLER

Structure (SMILES) | Ki [1] [nM] | Ki [2] [nM] | Ki [3, 5] [nM] | Ki [4, 6] [nM] | Ki [3, 7] [nM] | Ki [4, 8] [nM]
CC(C)(C)c1ccc(C[C@@H](NS(=O)(=O)Cc2ccccc2)C(=O)N[C@@H](Cc2cccc(CN)c2)C(=O)NCc2ccc(C(=N)N)cc2)cc1 [compound 13] | < 100 | < 1000 | < 100 | < 10 | < 5 | –
N=C(N)c1ccc(CNC(=O)[C@H](Cc2cccc(CN)c2)NC(=O)[C@@H](Cc2ccc(-c3ccccc3)cc2)NS(=O)(=O)Cc2ccccc2)cc1 [compound 14] | < 100 | < 1000 | < 10 | < 10 | < 5 | –
N=C(N)c1ccc(CNC(=O)[C@H](Cc2cccc(CN)c2)NC(=O)[C@@H](Cc2cccc3ccccc23)NS(=O)(=O)Cc2ccccc2)cc1 [compound 15] | < 100 | < 100 | < 10 | < 10 | – | –
N=C(N)c1ccc(CNC(=O)[C@H](Cc2cccc(CN)c2)NC(=O)[C@@H](Cc2ccc3ccccc3c2)NS(=O)(=O)Cc2ccccc2)cc1 [compound 17] | < 100 | < 1000 | < 10 | < 10 | – | –
N=C(N)c1ccc(CNC(=O)[C@H](Cc2cccc(CN)c2)NC(=O)[C@@H](Cc2ccc3ccccc3c2)NS(=O)(=O)Cc2cccc(C(=O)O)c2)cc1 [compound 18] | < 100 | > 1000 | < 10 | < 10 | – | –
N=C(N)c1ccc(CNC(=O)[C@H](Cc2cccc(CN)c2)NC(=O)[C@@H](CC2CCCCC2)NS(=O)(=O)Cc2ccccc2)cc1 [compound 20] | < 100 | < 1000 | < 10 | < 10 | – | –
N=C(N)c1ccc(CNC(=O)[C@H](Cc2cccc(CN)c2)NC(=O)[C@@H](CCCC2CCCCC2)NS(=O)(=O)Cc2ccccc2)cc1 [compound 21] | < 100 | < 1000 | < 10 | < 10 | – | –
N=C(N)c1ccc(CNC(=O)[C@H](Cc2cccc(CN)c2)NC(=O)[C@H](NS(=O)(=O)Cc2ccccc2)C(c2ccccc2)c2ccccc2)cc1 [compound 22] | < 100 | < 10 | < 10 | < 10 | – | –
N=C(N)c1ccc(CNC(=O)[C@H](Cc2cccc(CN)c2)NC(=O)[C@H](NS(=O)(=O)Cc2cccc(C(=O)O)c2)C(c2ccccc2)c2ccccc2)cc1 [compound 23] | < 100 | < 100 | < 10 | < 10 | – | –
N=C(N)c1ccc(CNC(=O)[C@H](CCc2ccc(CN)cc2)NC(=O)[C@@H](CCc2ccc(O)cc2)NS(=O)(=O)Cc2ccccc2)cc1 [compound 26] | < 10 | < 1000 | < 10 | < 10 | – | –
N=C(N)c1ccc(CNC(=O)[C@H](CCc2ccccc2)NC(=O)[C@@H](CCc2ccc(O)cc2)NS(=O)(=O)Cc2ccccc2)cc1 [compound 27] | < 10 | < 1000 | < 10 | < 10 | – | < 1
N=C(N)c1ccc(CNC(=O)[C@H](Cc2c[nH]cn2)NC(=O)[C@@H](CCCc2ccccc2)NS(=O)(=O)Cc2ccccc2)cc1 [compound 32] | < 1000 | < 100 | < 10 | < 100 | – | –
N=C(N)c1ccc(CNC(=O)[C@H](Cc2c[nH]cn2)NC(=O)[C@@H](CCCc2ccccc2)NS(=O)(=O)Cc2cccc(C(=O)O)c2)cc1 [compound 33] | < 1000 | > 1000 | < 10 | < 100 | – | –
N=C(N)c1ccc(CNC(=O)[C@H](CCc2ccccc2)NC(=O)[C@@H](CCCc2ccccc2)NS(=O)(=O)Cc2ccccc2)cc1 [compound 34] | < 1000 | < 100 | < 10 | < 10 | – | –
N=C(N)c1ccc(CNC(=O)[C@H](CCc2ccccc2)NC(=O)[C@@H](CCCc2ccccc2)NS(=O)(=O)Cc2cccc(C(=O)O)c2)cc1 [compound 36] | < 100 | < 1000 | < 10 | < 10 | – | –
N=C(N)c1ccc(CNC(=O)[C@H](CCc2ccc(CN)cc2)NC(=O)[C@@H](CC2CCCCC2)NS(=O)(=O)Cc2ccccc2)cc1 [compound 37] | < 100 | < 100 | < 100 | < 100 | – | –
N=C(N)c1ccc(CC[C@H](NC(=O)[C@@H](CC2CCCCC2)NS(=O)(=O)Cc2ccccc2)C(=O)NCc2ccc(C(=N)N)cc2)cc1 [compound 38] | < 100 | < 10 | < 10 | < 100 | < 5 | –
N=C(N)c1ccc(CNC(=O)[C@H](CCc2ccncc2)NC(=O)[C@@H](CCCc2ccccc2)NS(=O)(=O)Cc2ccccc2)cc1 [compound 39] | < 100 | < 10 | < 10 | < 10 | < 5 | < 1
CC(C)(C)OC[C@@H](NS(=O)(=O)Cc1ccccc1)C(=O)N[C@@H](Cc1cccc(CN)c1)C(=O)NCc1ccc(C(=N)N)cc1 [compound 71] | > 1000 | – | – | – | – | –
N=C(N)c1ccc(CNC(=O)[C@H](Cc2cccc(CN)c2)NC(=O)[C@@H](CO)NS(=O)(=O)Cc2ccccc2)cc1 [compound 72] | – | – | – | < 100 | – | –

Now from value to compound:

Ki [1] [nM] | Ki [2] [nM] | Ki [3, 5] [nM] | Ki [4, 6] [nM] | Ki [3, 7] [nM] | Ki [4, 8] [nM] | Structure (SMILES)
< 100 | < 1000 | < 10 | < 10 | – | – | N=C(N)c1ccc(CNC(=O)[C@H](Cc2cccc(CN)c2)NC(=O)[C@@H](CCCc2ccccc2)NS(=O)(=O)Cc2ccc(C(=O)O)cc2)cc1 [compound 2]
> 1000 | > 1000 | < 100 | < 10 | – | – | N=C(N)Nc1ccc(CNC(=O)[C@H](Cc2cccc(CN)c2)NC(=O)[C@@H](CCCc2ccccc2)NS(=O)(=O)Cc2cccc(C(=O)O)c2)cc1 [compound 4, 3-HOOC-Bzls-d-Ppg-Phe(3-Ame)-4-guanidinobenzylamide×2 acetate]
< 10 | < 100 | < 10 | < 10 | – | – | N=C(N)c1ccc(CNC(=O)[C@H](Cc2cccc(CN)c2)NC(=O)[C@@H](CCCc2ccc(Cl)cc2)NS(=O)(=O)Cc2ccccc2)cc1 [compound 7]
< 100 | < 100 | < 10 | < 10 | – | – | N=C(N)c1ccc(CNC(=O)[C@H](Cc2cccc(CN)c2)NC(=O)[C@@H](CCCc2ccccc2Cl)NS(=O)(=O)Cc2ccccc2)cc1 [compound 8]
< 100 | < 1000 | < 10 | < 10 | – | – | Cc1ccc(CCC[C@@H](NS(=O)(=O)Cc2ccccc2)C(=O)N[C@@H](Cc2cccc(CN)c2)C(=O)NCc2ccc(C(=N)N)cc2)cc1 [compound 9]
< 100 | < 1000 | < 10 | < 10 | – | – | COc1ccc(CCC[C@@H](NS(=O)(=O)Cc2ccccc2)C(=O)N[C@@H](Cc2cccc(CN)c2)C(=O)NCc2ccc(C(=N)N)cc2)cc1 [compound 10]
< 10 | < 1000 | < 10 | < 10 | – | – | N=C(N)c1ccc(CNC(=O)[C@H](Cc2cccc(CN)c2)NC(=O)[C@@H](CCCc2ccc(C(F)(F)F)cc2)NS(=O)(=O)Cc2ccccc2)cc1 [compound 11]
< 100 | < 1000 | < 10 | < 10 | – | – | N=C(N)c1ccc(CNC(=O)[C@H](Cc2cccc(CN)c2)NC(=O)[C@@H](CCCc2ccc(OC(F)(F)F)cc2)NS(=O)(=O)Cc2ccccc2)cc1 [compound 12]
< 1000 | < 1000 | < 10 | < 10 | – | – | N=C(N)c1ccc(CNC(=O)[C@H](Cc2cccc(CN)c2)NC(=O)[C@@H](Cc2cccc3ccccc23)NS(=O)(=O)Cc2ccc(C(=O)O)cc2)cc1 [compound 16]
< 1000 | < 1000 | < 10 | < 10 | – | – | N=C(N)c1ccc(CNC(=O)[C@H](Cc2cccc(CN)c2)NC(=O)[C@@H](Cc2ccc3ccccc3c2)NS(=O)(=O)Cc2ccc(C(=O)O)cc2)cc1 [compound 19]
< 10 | < 1000 | < 10 | < 10 | – | – | N=C(N)c1ccc(CNC(=O)[C@H](Cc2cccc(CN)c2)NC(=O)[C@@H](CCc2ccc(O)cc2)NS(=O)(=O)Cc2ccccc2)cc1 [compound 24]
< 1000 | < 1000 | < 10 | < 10 | – | – | N=C(N)c1ccc(CNC(=O)[C@H](Cc2ccc(CN)cc2)NC(=O)[C@@H](CCCc2ccccc2)NS(=O)(=O)Cc2ccccc2)cc1 [compound 28]
< 1000 | < 1000 | < 10 | < 10 | – | < 1 | N=C(N)c1ccc(CNC(=O)[C@H](Cc2ccc(CN)cc2)NC(=O)[C@@H](CCCc2ccccc2)NS(=O)(=O)Cc2ccc(C(=O)O)cc2)cc1 [compound 29]
< 1000 | > 1000 | < 10 | < 10 | – | – | N=C(N)c1ccc(CNC(=O)[C@H](Cc2ccc(CN)cc2)NC(=O)[C@@H](CCCc2ccccc2)NS(=O)(=O)Cc2cccc(C(=O)O)c2)cc1 [compound 30]
< 1000 | < 100 | < 10 | < 100 | – | – | N=C(N)c1ccc(CNC(=O)[C@H](CCc2ccc(CN)cc2)NC(=O)[C@@H](CCCc2ccccc2)NS(=O)(=O)Cc2ccccc2)cc1 [compound 31]
< 1000 | < 1000 | < 10 | < 10 | < 5 | – | N=C(N)c1ccc(CNC(=O)[C@H](CCc2ccccc2)NC(=O)[C@@H](CCCc2ccccc2)NS(=O)(=O)Cc2ccc(C(=O)O)cc2)cc1 [compound 35]
